The values that follow come from patent US20060189634A1, “Fungicide mixtures” (priority 2003, published 2006).

This assay concerns Plasmopara viticola. The assay can be described thus: Activity against peronospora of grapevines caused by Plasmopara viticola (protective spray on potted vines). In kind it is in vivo. The conditions noted are these: individual active compound, grapevine leaves cv. Müller-Thurgau, untreated control 81% infection. How it is done: The active compounds, separately or jointly, were prepared as a stock solution comprising 0.25% by weight of active compound in acetone or DMSO. 1% by weight of the emulsifier Uniperol® EL (wetting agent having emulsifying and dispersant action based on ethoxylated alkylphenols) was added to this solution, and the mixture was diluted with water to the desired concentration.
Use example—Activity against peronospora of grapevines caused by Plasmopara viticola
Leaves of potted vines of the cultivar “Müller-Thurgau” were sprayed to runoff point with an aqueous suspension having the concentration of active compound stated below. The next day, the undersides of the leaves were inoculated with an aqueous zoospore suspension of Plasmopara viticola. The grapevines were then initially placed in a water-vapor-saturated chamber at 24° C. for 48 hours and then in a greenhouse at 20-30° C. for 5 days. After this period of time, the plants were again placed in a humid chamber for 16 hours to promote sporangiophore eruption. The extent of the development of the disease on the undersides of the leaves was then determined visually.
The visually determined percentages of infected leaf areas were converted into efficacies in % of the untreated control:
The efficacy (E) is calculated as follows using Abbot's formula: E=(1−α/β)−100 α corresponds to the fungicidal infection of the treated plants in % and β corresponds to the fungicidal infection of the untreated (control) plants in %
An efficacy of 0 means that the infection level of the treated plants corresponds to that of the untreated control plants; an efficacy of 100 means that the treated plants were not infected.
The expected efficacies of mixtures of active compounds were determined using Colby's formula (Colby, S. R. “Calculating synergistic and antagonistic responses of herbicide combinations”, Weeds, 15, 20-22, 1967) and compared with the observed efficacies.
Colby's formula: E=x+y−x·y/100 E expected efficacy, expressed in % of the untreated control, when using the mixture of the active compounds A and B at the concentrations a and b x efficacy, expressed in % of the untreated control, when using the active compound A at the concentration a y efficacy, expressed in % of the untreated control, when using the active compound B at the concentration b

SMILES strings stand for the structures.

For `CC1CCN(c2c(-c3c(F)cccc3Cl)c(Cl)nc3ncnn23)CC1` [Comparison A], the “Efficacy in % of the untreated control” value (4 ppm in the spray liquor) is 13%.
On the same count and under the same terms, in the case of `C[C@H](Nc1c(-c2c(F)cc(F)cc2F)c(Cl)nc2ncnn12)C(F)(F)F` [Comparison B] it was 13%; in that of `CC1CCN(c2c(-c3c(F)cc(F)cc3F)c(Cl)nc3ncnn23)CC1` [I, 5-chloro-7-(4-methylpiperidin-1-yl)-6-(2,4,6-trifluorophenyl)-[1,2,4]triazolo[1,5-a]pyrimidine], 51%.
As for `N#Cc1sc2c(=O)c3ccccc3c(=O)c=2sc1C#N` [II (dithianon), 5,10-dioxo-5,10-dihydronaphtho[2,3-b][1,4]dithiine-2,3-dicarbonitrile], the “Efficacy in % of the untreated control” value was 1% (1 ppm in the spray liquor), 13% (4 ppm in the spray liquor) and 13% (16 ppm in the spray liquor).
